Source: patent US20220073475A1, “5-MEMBERED HETEROARYL COMPOUNDS CONTAINING A HYDROXAMATE MOIETY AND THEIR USE” (UNIVERSITE DE LILLE, priority 2019, published 2022)

Columns and labels:
MCF7 cells = test: CFZ potency increase, ratio of CC50 of CFZ alone / with compound; type: cell-based, human; conditions: MCF7, compound at 15 μM
Method: Human epithelial MCF7 cells (mammary gland adenocarcinoma) are maintained in EMEM medium supplemented with GlutaMAX™, 10% fetal bovine serum, 0.01 mg insulin and 1% penicillin-streptomycin.
(§1) We developed a cell-based, high content assay allowing the rapid detection and quantification of apoptotic cells. Caspase-3/7 activity was detected in real-time using the NucView™ 488 Caspase-3 substrate (Biotium), where the caspase-3/7 substrate peptide sequence DEVD is attached to a nucleic acid dye. The NucView™ 488 reagent crosses the plasma membrane to enter the cytoplasm, where the dye is unable to bind to DNA and remains non-fluorescent. Once the substrate has been cleaved by activated caspase-3/7 in apoptotic cells, the high-affinity DNA dye is released and migrates to the cell nucleus to stain the nucleus with a bright green fluorescence. All cell nuclei were also labeled with Hoechst 33342 (Ozyme).
(§2) For HeLa and MCF7 cells, briefly, cells were seeded in 384-microtiter well plate (1500 HeLa cells or 5000 MCF7 cells in 40 μL full medium per well) and let to attach overnight. Then the compound of the invention and the RE stressor were transferred to the cell culture plate using an Echo555 liquid handler (Labcyte) and 30 μL medium containing NucView™ and Hoechst 33342 were added. Final NucView™ 488 and Hoechst 33342 concentrations were 1 μM and 20 ng/mL, respectively. DMSO content was maintained at 0.2%. The microplates were incubated at 37° C. and 5% CO2 in an automated LiCONiC STR240 UB cell incubator, and images were acquired at various times at 405 nm and 488 nm with the high-resolution automated confocal microscope INCell 6000 (GE). Four fields per well were read with the 20× objective in a confocal mode. The BioCel workstation was managed by VWorks automation control software (Agilent).
(§3) For all cells, Columbus software (Perkin) was used for image quantification and analysis. First, Hoechst 33342 staining was used for an automated detection of nuclei, in which the mean fluorescence intensity for NucView™ 488 was quantified. Inspection of control cells at initial time was used to set a threshold level of NucView™ 488 fluorescence to separate non apoptotic cells from apoptotic cells. Finally, for each well, the result was expressed as percentage of apoptotic cells in the total cell population. CC50 values were calculated from concentration-response curves by a nonlinear regression analysis at four parameters using Excel Fit or GraphPad Prim softwares.
(§4) Activity=(% of apoptotic cells with cytotoxic agent in combination with compound of the invention)/(% of apoptotic cells with cytotoxic agent alone). • Ratio of CC50: The CC50 of the cytotoxic agent was calculated in absence and in presence of a compound of the invention.
(§5) Activity=(CC50 of agent alone)/(CC50 of agent with compound). • Ratio of AUC. Activity=(Area of the dose-concentration curve of cytotoxic agent combined with one concentration of compound)/(Area of the dose-concentration curve of cytotoxic agent alone). (Lehar J. et al, 2008 (molecular systems biology 4:215)).

TLM1 cells [1] = test: UV-C radiation in combination with compound, ratio of % propidium iodide labelled cells; type: cell-based, canine; conditions: for Potency of UV-C radiations in combination with compound (in words): TLM1
Method: (§6) Canine melanoma TLM-1 cells are maintained in DMEM medium supplemented with GlutaMAX™, 10% fetal bovine serum, 1× Hepes and 1% penicillin-streptomycin.
Plates were incubated at 37° C. and 5% CO2. […] 4 images per well were collected. Images were analyzed with Columbus software (Perkin Elmer). In this system we used predefined building blocks to measure different parameters on nuclei detected. We applied a threshold based on propidium iodide intensity in nuclei of controls to select and count dead cells. By dividing the number of dead cells by the number of nuclei detected we obtained the percentage of dead cells.

TLM1 cells [2] = test: X-ray radiation in combination with compound, propidium iodide dead cells, ratio of corrected AUC; type: cell-based, canine; conditions: for Potency of X-ray radiations in combination with compound (in words): TLM1
Method: as §6
TLM-1 cells were seeded with the BioTek MicroFlo™ dispenser in μClear® black 384-well plates (Greiner) at the density of 20,000 cells/mL in 50 μL. Compounds for pre-treatment were added 2 h after the seeding, using an Echo 550 (Labcyte). The next day, cells were washed five times with 40 μL media without phenol red with a plate washer (Hydrospeed, Tecan). Cells were irradiated with 4, 6, 8, 12, 16, 20 and 24 Gray (Gy). […] This step was repeated every 72 h after radiation. Plates were incubated at 37° C. and 5% CO2. […] 4 images per well were collected. Images were analyzed with Columbus software (Perkin Elmer). In this system we used predefined building blocks to measure different parameters on nuclei detected. We applied a threshold based on propidium iodide intensity in nuclei of controls to select and count dead cells. By dividing the number of dead cells by the number of nuclei detected we obtained the percentage of dead cells. AUC were determined in one experiment with triplicate incubates on percentage of cells labelled with propidium iodide and were corrected by the percentage of cells labelled with propidium iodide at 0 Gy. Ratio of AUC corrected was determined as followed: Activity=(Area of the dose-concentration curve of cytotoxic agent combined with one concentration of compound corrected by the effect of the compound alone at 0Gy)/(Area of the dose-concentration curve of radiation alone corrected by the effect of the vehicle at 0Gy).

OPM2 cells = test: CFZ potency increase, ratio of CC50 of CFZ alone / with compound; type: cell-based, human
Procedure, shortened: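 OPM2 cells (12,000/well, 0.2% DMSO) treated with compound plus carfilzomib, with NucView 488 caspase-3/7 substrate (1 μM) and Hoechst 33342, 37 °C; confocal imaging over time gives % apoptotic cells. CFZ CC50 from 4-parameter fits alone and with compound; activity = CC50 alone / CC50 with compound.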

HeLa cells = test: as above; type: cell-based, human; conditions: compound at 7.5 μM
Text: Human HeLa cells (uterine cervical carcinoma) are maintained in DMEM medium supplemented with GlutaMAX™, 10% fetal bovine serum and 1% penicillin-streptomycin.
as §1, §2, §3, §4, §5

RPMI 8226 cells = test: Epoxomicin (EPX) in combination with compound 3, Annexin V/PI flow cytometry; type: cell-based, human; conditions: RPMI 8226 (FIG. 1A), compound at 7.5 μM, 15 μM and 30 μM
Method: (§7) RPMI 8226 and MOPC315.BM cells were cultured in RPMI 1640 medium supplemented with L-glutamine, non-essential amino acids, 2-mercaptoethanol and 10% fetal calf serum.
(§8) Cells were seeded in 24-well culture plates at 150,000 cells/well/mL. […] Cells were treated with protease inhibitors for 24 and 48 hours before analysis for apoptosis and cell death by flow cytometry. The cells were centrifuged at 300×g for 5 minutes and washed with cold FACS buffer (PBS 1× with 2 mM EDTA and 0.5% BSA. Then the cells were resuspended in Annexin V binding buffer (BioLegend) at a concentration of 10^6 cells/mL, and 100 μL of each sample was transferred to a 5 mL FACS tube. 5 μL of Annexin V-FITC Ab (BioLegend) and 5 μL of propidium iodide (BioLegend) were added to each sample and incubated 15 min at RT. Finally, 400 μL of Annexin V binding buffer was added to each tube and the cells were analyzed using BD FACSCanto or BD Fortessa machines within an hour. Annexin+ but PI− cells were identified as apoptotic and Annexin+ PI+ as dead cells.

MOPC315.BM cells = test: as above; type: cell-based, murine; conditions: MOPC315.BM (FIG. 1B), compound at 7.5 μM, 15 μM and 30 μM
Method: as §7, §8

Row | Structure (SMILES) | Activity: ratio (CC50 of CFZ alone)/(CC50 of CFZ in combination with compound of the invention) (MCF7 cells) | Potency of UV-C radiations in combination with compound (in words) (TLM1 cells [1]) | Activity: ratio of percentage of cells labelling with propidium iodide, compound vs vehicle (TLM1 cells [1]; TLM1, 15 μM compound 24 h before and just after UV-C, 48 h after UV-C at 400 J/m^2, mean of three experiments) | Potency of X-ray radiations in combination with compound (in words) (TLM1 cells [2]) | Activity: ratio of corrected AUC of X-ray radiation in combination with compound / corrected AUC of X-ray radiation alone (TLM1 cells [2]; TLM1, compound at 30 μM) | Activity: ratio (CC50 of CFZ alone)/(CC50 of CFZ in combination with compound of the invention) (OPM2 cells; OPM2, compound at 7.5 μM (Table 5)) | Activity: ratio (CC50 of CFZ alone)/(CC50 of CFZ in combination with compound of the invention) (OPM2 cells; OPM2, compound at 7.5 μM (Table 6)) | Activity: ratio (CC50 of CFZ alone)/(CC50 of CFZ in combination with compound of the invention) (HeLa cells) | Cytotoxicity of epoxomicin in combination with compound (RPMI 8226 cells) | Cytotoxicity of epoxomicin in combination with compound (MOPC315.BM cells)
1 | Cc1cc(C(=O)NCc2cn([C@@H](CC(=O)NO)Cc3ccc4ccccc4c3)nn2)ccc1F [Compound 80, 4-fluoro-N-[[1-[(1R)-3-(hydroxyamino)-1-(2-naphthylmethyl)-3-oxo-propyl]triazol-4-yl]methyl]-3-methyl-benzamide] | 2.4 | increase the potency | 2.3 | increase the potency | 2.7 | 2.2 | 2.2 | 3.6 | – | –
2 | O=C(C[C@@H](Cc1ccc2ccccc2c1)n1cc(CNC(=O)c2ccc(F)cc2)nn1)NO [Compound 3, 4-Fluoro-N-[1-(R-2-hydroxycarbamoyl-1-naphthalen-2-ylmethyl-ethyl)-1H-[1,2,3]-triazol-4-ylmethyl]-benzamide] | – | increase the potency | – | increase the potency | – | – | – | – | increased | increased
